Test results taken from the NIST ThermoML archive (doi:10.1021/acs.jced.6b00786).
± gives the expanded uncertainty stated by the source.

Assay: xn = mol fraction of the nth substance listed
Conditions: 101 kPa, Liquid, Vibrating tube method

NC=O [formamide] + O
mass density (278.15 K, x1 = 1): 1146.62 ± 0.2 kg/m3 | mass density (279.15 K, x1 = 0.00244): 1001 ± 0.044 kg/m3 | mass density (279.15 K, x1 = 0.00515): 1002.18 ± 0.045 kg/m3 | mass density (279.15 K, x1 = 0.0086): 1003.65 ± 0.045 kg/m3 | mass density (279.15 K, x1 = 0.02032): 1008.52 ± 0.048 kg/m3 | mass density (279.15 K, x1 = 0.03478): 1014.19 ± 0.051 kg/m3 | mass density (279.15 K, x1 = 0.04976): 1019.74 ± 0.054 kg/m3 | mass density (279.15 K, x1 = 0.06674): 1025.57 ± 0.058 kg/m3 | mass density (279.15 K, x1 = 0.08229): 1030.68 ± 0.061 kg/m3 | mass density (279.15 K, x1 = 0.1171): 1041.07 ± 0.069 kg/m3 | mass density (280.15 K, x1 = 0.00244): 1000.95 ± 0.044 kg/m3 | mass density (280.15 K, x1 = 0.00515): 1002.11 ± 0.045 kg/m3 | mass density (280.15 K, x1 = 0.0086): 1003.57 ± 0.045 kg/m3 | mass density (280.15 K, x1 = 0.02032): 1008.39 ± 0.048 kg/m3 | mass density (280.15 K, x1 = 0.03478): 1014 ± 0.051 kg/m3 | mass density (280.15 K, x1 = 0.04976): 1019.49 ± 0.054 kg/m3 | mass density (280.15 K, x1 = 0.06674): 1025.28 ± 0.058 kg/m3 | mass density (280.15 K, x1 = 0.08229): 1030.32 ± 0.061 kg/m3 | mass density (280.15 K, x1 = 0.1171): 1040.65 ± 0.069 kg/m3 | mass density (281.15 K, x1 = 0.00244): 1000.89 ± 0.044 kg/m3 | mass density (281.15 K, x1 = 0.00515): 1002.04 ± 0.044 kg/m3 | mass density (281.15 K, x1 = 0.0086): 1003.47 ± 0.045 kg/m3 | mass density (281.15 K, x1 = 0.02032): 1008.25 ± 0.048 kg/m3 | mass density (281.15 K, x1 = 0.03478): 1013.8 ± 0.051 kg/m3 | mass density (281.15 K, x1 = 0.04976): 1019.23 ± 0.054 kg/m3 | mass density (281.15 K, x1 = 0.06674): 1024.97 ± 0.058 kg/m3 | mass density (281.15 K, x1 = 0.08229): 1029.97 ± 0.061 kg/m3 | mass density (281.15 K, x1 = 0.1171): 1040.23 ± 0.069 kg/m3 | mass density (282.15 K, x1 = 0.00244): 1000.81 ± 0.044 kg/m3 | mass density (282.15 K, x1 = 0.00515): 1001.94 ± 0.044 kg/m3 | mass density (282.15 K, x1 = 0.0086): 1003.37 ± 0.045 kg/m3 | mass density (282.15 K, x1 = 0.02032): 1008.09 ± 0.048 kg/m3 | mass density (282.15 K, x1 = 0.03478): 1013.58 ± 0.051 kg/m3 | mass density (282.15 K, x1 = 0.04976): 1018.97 ± 0.054 kg/m3 | mass density (282.15 K, x1 = 0.06674): 1024.66 ± 0.057 kg/m3 | mass density (282.15 K, x1 = 0.08229): 1029.6 ± 0.06 kg/m3 | mass density (282.15 K, x1 = 0.1171): 1039.81 ± 0.069 kg/m3 | mass density (283.15 K, x1 = 0.00244): 1000.72 ± 0.044 kg/m3 | mass density (283.15 K, x1 = 0.00515): 1001.84 ± 0.044 kg/m3 | mass density (283.15 K, x1 = 0.0086): 1003.25 ± 0.045 kg/m3 | mass density (283.15 K, x1 = 0.02032): 1007.94 ± 0.048 kg/m3 | mass density (283.15 K, x1 = 0.03478): 1013.36 ± 0.051 kg/m3 | mass density (283.15 K, x1 = 0.04976): 1018.7 ± 0.054 kg/m3 | mass density (283.15 K, x1 = 0.06674): 1024.35 ± 0.057 kg/m3 | mass density (283.15 K, x1 = 0.08229): 1029.24 ± 0.061 kg/m3 | mass density (283.15 K, x1 = 0.1171): 1039.36 ± 0.067 kg/m3 | mass density (288.15 K, x1 = 0.00244): 1000.07 ± 0.044 kg/m3 | mass density (288.15 K, x1 = 0.00515): 1001.13 ± 0.044 kg/m3 | mass density (288.15 K, x1 = 0.0086): 1002.47 ± 0.045 kg/m3 | mass density (288.15 K, x1 = 0.02032): 1006.89 ± 0.047 kg/m3 | mass density (288.15 K, x1 = 0.03478): 1012.11 ± 0.05 kg/m3 | mass density (288.15 K, x1 = 0.04976): 1017.23 ± 0.053 kg/m3 | mass density (288.15 K, x1 = 0.06674): 1022.65 ± 0.056 kg/m3 | mass density (288.15 K, x1 = 0.08229): 1027.38 ± 0.059 kg/m3 | mass density (288.15 K, x1 = 0.1171): 1037.14 ± 0.067 kg/m3 | mass density (288.15 K, x1 = 0.1745): 1051.09 ± 0.076 kg/m3 | mass density (288.15 K, x1 = 0.2169): 1059.95 ± 0.082 kg/m3 | mass density (288.15 K, x1 = 0.2557): 1067.27 ± 0.087 kg/m3 | mass density (288.15 K, x1 = 0.3026): 1075.25 ± 0.094 kg/m3 | mass density (288.15 K, x1 = 0.351): 1082.54 ± 0.1 kg/m3 | mass density (288.15 K, x1 = 0.4027): 1089.57 ± 0.11 kg/m3 | mass density (288.15 K, x1 = 0.4487): 1095.2 ± 0.11 kg/m3 | mass density (288.15 K, x1 = 0.4886): 1099.61 ± 0.12 kg/m3 | mass density (288.15 K, x1 = 0.5601): 1106.92 ± 0.13 kg/m3 | mass density (288.15 K, x1 = 0.5916): 1109.89 ± 0.13 kg/m3 | mass density (288.15 K, x1 = 0.6674): 1116.35 ± 0.14 kg/m3 | mass density (288.15 K, x1 = 0.7066): 1119.42 ± 0.15 kg/m3
